Where two headings read alike, the source gives them in different places.
Legend:
[1] = system: MCF-7 cells stably expressing EF1 HA-ER-α L536P; assay: cells; assay type: cell-based; design: Percent inhibition compared to vehicle: concentration or dose not given beside the values; conditions: EF1 HA-ER-α L536P; for Percent inhibition compared to vehicle: 5-Day Incubation; for Efficacy (Emax): Day 5 relative to Day 0
Procedure, shortened: (§1)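 MCF-7 lines stably expressing N-terminal HA-tagged ESR1 (wild-type or mutant) from EF1 (puromycin-selected) or UbC (hygromycin-selected) lentiviral vectors, or empty vector, were seeded in phenol-free RPMI with 10% CSS.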

[2] = system: MCF-7 cells stably expressing EF1 HA-ER-α L536R; assay: cells; assay type: cell-based; design: Percent inhibition compared to vehicle: concentration or dose not given beside the values; conditions: EF1 HA-ER-α L536R; for Percent inhibition compared to vehicle: 5-Day Incubation; for Efficacy (Emax): Day 5 relative to Day 0
Procedure, shortened: as §1

[3] = system: MCF-7 cells stably expressing UbC HA-ER-α L536P; assay: cells; assay type: cell-based; design: Percent inhibition compared to vehicle: concentration or dose not given beside the values
Procedure, shortened: (§2)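 CellTiter-Glo read-out: background-subtracted RLU divided by day-0 RLU gives fold proliferation. Cells were MCF-7 transduced with HA-ER-α lentivirus (EF1 high or UbC low-moderate promoter) or empty vector, dosed 10 μM–5 pM for 5 days in phenol-free RPMI/10% CSS.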

[4] = system: MCF-7 cells stably expressing UbC HA-ER-α Y537N; assay: cells; assay type: cell-based; design: Percent inhibition compared to vehicle: concentration or dose not given beside the values; conditions: UbC HA-ER-α Y537N; for Percent inhibition compared to vehicle: 5-Day Incubation; for Efficacy (Emax): Day 5 relative to Day 0
Procedure, shortened: as §2

[5] = system: MCF-7 cells stably expressing ER-α mutants; conditions: UbC and EF1-derived lines; agonist mode
Experimental: Potency and efficacy of ERM 1-3 were measured in vitro in ER dependent transcriptional reporter assays and viability assays of MCF-7 cells stably expressing ER-α mutants.
MCF-7 Mutant ER-α Stable Cell Line Generation: MCF-7 cells stably expressing wild-type or ER-α mutants were generated by subcloning ESR1 wild-type and mutant cDNAs containing an amino terminal hemagglutinin tag into pCDH-EF1-MCS-(PGK-Puro) (referred to as EF1 HA-ER-α) and pCDH-UbC-MCS-EF1-Hygro (referred to as UbC HA-ER-α) (System Biosciences). The resulting plasmids, in addition to an empty vector negative control, were subsequently cotransfected into HEK293T cells with the pPACKH1 packaging plasmid mix (System Biosciences) according to the manufacturer's protocol. Four days post transfection lentiviral particles were purified from the cell medium, tiered and stored at −80° C. MCF-7 cells were transduced with the purified viral particles and stable cell lines were selected by growth in RPMI containing 10% FBS plus 1 μG/mL puromycin or 200 μG/mL hygromycin for pCDH-EF1-MCS-(PGK-Puro) and pCDH-UbC-MCS-EF1-Hygro, respectively.
MCF-7 Stable Cell Line Viability: MCF-7 cells were enumerated with a hemacytometer adjusted to a concentration of 40,000 cells per mL in Phenol Free RPMI containing 10% CSS with NEAA and Sodium Pyruvate. 16 microliters of the cell suspension was added to each well of a 384 well tissue culture treated white clear bottom polystyrene plate (Corning) using a Matrix 16 channel electronic pipette. The cells were incubated overnight to allow the cells to adhere. […] The “average” of the relative luminescence units (RLUs) of the wells are considered to be the baseline value at time=zero. […] The relative luminescence units (RLUs) of each well were measured, and relative proliferation (fold) of each sample was determined as follows: (RLU sample−RLU background)/(RLU at T=0)=relative proliferation
Potency and efficacy of ERM 4-23 were measured in vitro in ER dependent transcriptional reporter assays and viability assays of MCF-7 cells stably expressing ER-α mutants.

wild-type ER-α = biological target: T1, wild-type ER-α (Homo sapiens, UniProt P03372)
T1 sequence (P03372 1-595): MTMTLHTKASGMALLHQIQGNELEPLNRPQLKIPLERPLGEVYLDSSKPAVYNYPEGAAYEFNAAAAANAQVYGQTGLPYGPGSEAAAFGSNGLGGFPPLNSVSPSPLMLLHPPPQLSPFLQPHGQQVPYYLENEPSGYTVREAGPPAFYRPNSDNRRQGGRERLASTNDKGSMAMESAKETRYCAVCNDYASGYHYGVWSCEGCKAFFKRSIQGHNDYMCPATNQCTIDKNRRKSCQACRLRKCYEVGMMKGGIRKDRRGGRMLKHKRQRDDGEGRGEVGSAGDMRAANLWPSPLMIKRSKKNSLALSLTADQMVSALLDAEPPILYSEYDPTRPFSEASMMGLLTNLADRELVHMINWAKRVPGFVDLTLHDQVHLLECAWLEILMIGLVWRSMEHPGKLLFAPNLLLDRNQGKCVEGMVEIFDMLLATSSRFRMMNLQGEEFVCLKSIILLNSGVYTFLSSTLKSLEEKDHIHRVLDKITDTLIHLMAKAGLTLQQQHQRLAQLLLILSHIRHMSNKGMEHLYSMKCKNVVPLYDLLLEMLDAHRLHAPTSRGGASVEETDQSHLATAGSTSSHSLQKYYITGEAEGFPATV

[6] = Agonist Mode, −E2, read-out: Potency (EC50; nM)
[7] = Antagonist Mode, +E2, read-out: Potency (EC50; nM)
[8] = Antagonist Mode, −E2 (Table 27), read-out: Potency (EC50; nM)
[9] = Agonist Mode, −E2, 5-Day Incubation
[10] = Agonist Mode, −E2, Day 5 relative to Day 0
[11] = Antagonist Mode, +E2, 5-Day Incubation
[12] = Antagonist Mode, +E2, Day 5 relative to Day 0
[13] = Homo sapiens, MCF7, read-out: Potency (EC50; nM), Agonist Mode, −E2
[14] = Homo sapiens, MCF7, read-out: Potency (EC50; nM), Antagonist Mode, +E2
[15] = Homo sapiens, MCF7, read-out: Potency (EC50; nM), Antagonist Mode, −E2 (Table 27)

| Compound | Percent inhibition compared to vehicle ([1]; Agonist Mode, −E2) | Efficacy (Emax) ([1]; Agonist Mode, −E2) | Percent inhibition compared to vehicle ([1]; Antagonist Mode, +E2) | Efficacy (Emax) ([1]; Antagonist Mode, +E2) | Percent inhibition compared to vehicle ([2]; Agonist Mode, −E2) | Efficacy (Emax) ([2]; Agonist Mode, −E2) | Percent inhibition compared to vehicle ([2]; Antagonist Mode, +E2) | Efficacy (Emax) ([2]; Antagonist Mode, +E2) | Percent inhibition compared to vehicle [3, 9] | Efficacy (Emax) [3, 10] | Percent inhibition compared to vehicle [3, 11] | Efficacy (Emax) [3, 12] | Percent inhibition compared to vehicle ([4]; Agonist Mode, −E2) | Efficacy (Emax) ([4]; Agonist Mode, −E2) | Percent inhibition compared to vehicle ([4]; Antagonist Mode, +E2) | Efficacy (Emax) ([4]; Antagonist Mode, +E2) | EC50 [3, 13] | EC50 [4, 13] | further results |
| --- | --- | --- | --- | --- | --- | --- | --- | --- | --- | --- | --- | --- | --- | --- | --- | --- | --- | --- | --- |
| CCC(=C(c1ccc(O)cc1)c1ccc(OCCN(C)C)cc1)c1ccccc1 [4-Hydroxytamoxifen] | 58% | 3.47 ± 0.03 | 60% | 3.64 ± 0.26 | 43% | 3.91 ± 0.04 | 47% | 3.65 ± 0.29 | 35% | 2.06 ± 0.19 | 61% | 2.31 ± 0.27 | 46% | 2.34 ± 0.29 | 65% | 2.27 ± 0.07 | – | – | EC50 [1, 6]: 4.39 ± 0.723 nM; EC50 [1, 7]: 9.22 ± 0.546 nM; EC50 [1, 8]: 4.39 ± 0.723 nM; EC50 [2, 6]: 7.14 ± 6.64 nM; EC50 [2, 7]: 19 ± 18.2 nM; EC50 [2, 8]: 7.14 ± 6.64 nM; EC50 [3, 6]: 0.821 ± 0.726 nM; EC50 [3, 7]: 2.13 ± 4.68 nM; EC50 [4, 6]: 1.58 ± 0.955 nM; EC50 [4, 7]: 5.03 ± 0.765 nM; efficacy compared with fulvestrant and ERM 4-23 (in words) [5]: reduced efficacy on all the mutations tested |
| C[C@]12CC[C@@H]3c4ccc(O)cc4CC[C@H]3[C@@H]1CC[C@@H]2O [17β-Estradiol] | – | 8.49 ± 0.94 | – | 9.07 ± 0.12 | – | 6.93 ± 1.50 | – | 6.83 ± 1.36 | – | 5.06 ± 0.76 | – | 5.66 ± 0.52 | – | – | – | 6.49 ± 0.97 | 0.212 ± 0.401 nM | 0.126 ± 0.233 nM | – |
| C[C@]12CC[C@@H]3c4ccc(O)cc4C[C@@H](CCCCCCCCC[S+]([O-])CCCC(F)(F)C(F)(F)F)[C@H]3[C@@H]1CC[C@@H]2O (stereo partly shown) [Fulvestrant] | 56% | 3.58 ± 0.10 | 60% | 3.65 ± 0.56 | 42% | 3.95 ± 0.36 | 48% | 3.53 ± 0.28 | 47% | 1.66 ± 0.11 | 71% | 1.73 ± 0.08 | 63% | 1.61 ± 0.15 | 77% | 1.49 ± 0.00 | 0.298 ± 0.132 nM | 0.355 ± 0.163 nM | EC50 [1, 13]: 4.51 ± 0.313 nM; EC50 [1, 14]: 16.4 ± 8.21 nM; EC50 [1, 15]: 4.51 ± 0.313 nM; EC50 [2, 13]: 6.29 ± 1.13 nM; EC50 [2, 14]: 35 ± 2.77 nM; EC50 [2, 15]: 6.29 ± 1.13 nM; EC50 [3, 14]: 2.59 ± 2.58 nM; EC50 [4, 14]: 1.77 ± 0.387 nM; Efficacy (Emax) (wild-type ER-α; Agonist Mode, −E2, relative to vehicle treated wild-type ER-α): 0.15 ± 0.09; Efficacy (Emax) (wild-type ER-α; Antagonist Mode, +E2, relative to vehicle treated wild-type ER-α): 0.06 ± 0.08 |
